The subject of one experiment is morphine dependent rats. Briefly: Naloxone-precipitated withdrawal responses in morphine dependent rats. It counts as in vivo, rat. How it is done: Rats received a depot subcutaneous injection of morphine (150 mg/kg) with or without continuous infusion of D-CYSee (20 μmol/kg/hour, IV) and one day later the rats received an intraperitoneal injection of naloxone HCl (1.5 mg/kg) to elicit withdrawal responses.

Experiment [1] has as its system morphine-exposed mouse pups. Briefly: Neonatal opioid withdrawal syndrome (NOWS): naloxone-precipitated somatic signs in morphine-exposed mouse pups. It counts as in vivo. The conditions noted are these: D-CYSee 30 mg/kg s.c. given prior to naloxone 1.0 mg/kg. How it is done: FIG. 2 illustrates a schematic timeline of an assay of neonatal morphine exposure of female mice for determining neonatal opioid withdrawal syndrome (NOWS). Female mice are implanted with osmotic mini-pumps containing 20 mg/kg/day morphine sulfate and mated. Offspring are injected twice daily with 10 mg/kg morphine for 14 days.
FIG. 4 illustrates a graph showing D-CYSee modulates NOWS. […] D-CYSee (30 mg/kg s.c.) given prior to naloxone (1.0 mg/kg) reduces all somatic signs of withdrawal except for jumping behavior, which is enhanced.

Where [2] appears, read: rats, D-CYSee 20 μmol/kg/hour IV, naloxone HCl 1.5 mg/kg i.p.

Consider `CCOC(=O)[C@H](N)CS` [D-CYSee, D-cysteine ethyl ester], for which, in the experiment with morphine dependent rats (morphine 150 mg/kg depot s.c., D-CYSee 20 μmol/kg/hour IV continuous infusion, naloxone HCl 1.5 mg/kg i.p. one day later), the withdrawal responses entry is recorded as “markedly diminishes”. In the experiment with morphine dependent rats (setting [2]), the “change in mean arterial blood pressure” value is listed as “attenuated”, the circling behavior entry was “attenuated”, the episodes of apneas result is listed as “attenuated” and the “episodes of fore-paw licking” value is “attenuated”. For the same compound, in the experiment with morphine dependent rats (setting [2]), the episodes of sneezing result is “attenuated”, the jumping behavior result is on record as “attenuated” and the rearing behavior result is “attenuated”. Further, in experiment [1], the body tremors result is “reduces”, the “jumps (jumping behavior)” value was “enhanced”, the paw tremors entry was “reduces” and the wall climbs result is given as “reduces”.

(Values after patent US20250009706A1, “COMPOSITIONS AND METHODS FOR TREATING OPIOID DEPENDENCE AND WITHDRAWAL” (CASE WESTERN RESERVE UNIVERSITY, priority 2021, published 2025).)
